Laboratory results: US4492693A, “Benzothienylglycyl cephalosporin derivatives” (priority 1983, dated 1985)
In brackets after ≈: the same amount, converted by molar mass. Read-outs that look alike come from different tables or passages of the source.

Columns and labels:
[1] = tested on: E. coli; test: Agar Dilution MIC (Table I); assay type: cell-based; conditions: Escherichia coli
[2] = tested on: β-lactamase, organism PS185; test: Stability to β-lactamase (Table V); assay type: biochemical; conditions: lower numbers mean greater stability
[3] = tested on: Strep. D; test: Agar Dilution MIC (Table I); assay type: cell-based; conditions: read-out: Agar Dilution MIC
Summary of the method: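 Minimum inhibitory concentrations, in μg/ml, come from a conventional agar dilution test run in vitro.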

[4] = tested on: Klebsiella; test: Agar Dilution MIC (Table I); assay type: cell-based; conditions: Klebsiella, read-out: Agar Dilution MIC
[5] = tested on: H. influ.; test: Agar Dilution MIC (Table I); assay type: cell-based; conditions: read-out: Agar Dilution MIC
[6] = tested on: β-lactamase, organism 1313G; test: Stability to β-lactamase (Table V); assay type: biochemical; conditions: lower numbers mean greater stability
[7] = tested on: β-lactamase, organism 1082E; test: Stability to β-lactamase (Table V); assay type: biochemical; conditions: lower numbers mean greater stability
[8] = tested on: Strep. PN; test: Agar Dilution MIC (Table I); assay type: cell-based; conditions: strain PARK
[9] = tested on: Bacteroides fragilis; test: Expanded anaerobic Spectrum MIC (Table IV); assay type: cell-based
[10] = tested on: β-lactamase, organism TEM; assay type: biochemical; conditions: lower numbers mean greater stability
[11] = tested on: β-lactamase, organism 265A; test: Stability to β-lactamase (Table V); assay type: biochemical; conditions: lower numbers mean greater stability
[12] = tested on: bacteria; test: Antibacterial activity (general statements); assay type: cell-based; conditions: anaerobic bacteria and Haemophilus influenzae, more strains
[13] = tested on: Bacteroides fragilis; test: Susceptibility of Anaerobic Bacteroides Isolates by the Agar-Dilution Method (Table III); assay type: cell-based; conditions: 24 h
From the text: (§1) A typical and preferred compound provided by this invention is 7-(3-benzothienyl)glycylamido-3-methyl-3-cephem-4-carboxylic acid, the compound illustrated in Example 9. The antibacterial activity of this compound has been determined in standard in vitro agar dilution assays against a variety of gram positive and gram negative microorganism. The following Tables present typical minimum inhibitory concentrations (MIC's) in μg/ml for several compounds of the invention when evaluated against the indicated microorganisms. MIC's for several known compounds are also presented for comparison.
(§2) Susceptibility of Anaerobic Bacteroides Isolates by the
(§3) Agar-Dilution Method MIC (μg/ml) readings 24 hrs. after incubation

[14] = tested on: Bacteroides corrodens; test: as above; assay type: cell-based; conditions: Eikenella corrodens; strain 1874; readings 24 hrs. after incubation
From the text: as §1, §2, §3

[15] = tested on: Bacteroides thetaiotaomicron; test: as above; assay type: cell-based; conditions: 24 h
From the text: as §1, §2, §3

[16] = tested on: Staph. aureus; test: Expanded Spectrum MIC (Table II); assay type: cell-based; conditions: Staphylococcus aureus
Summary of the method: (§4)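 MICs (μg/ml) were determined by standard in vitro agar dilution.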

[17] = tested on: H. influenzae; test: Expanded Spectrum MIC (Table II); assay type: cell-based; conditions: Haemophilus influenzae
Summary of the method: as §4

[18] = tested on: Strep. A; test: Agar Dilution MIC (Table I); assay type: cell-based; conditions: read-out: Agar Dilution MIC
[19] = tested on: Haemophilus influenzae; test: Expanded H. influenzae Spectrum MIC (Table IV); assay type: cell-based
[20] = mean over strains, read-out: MIC mean

CC1=C(C(=O)O)N2C(=O)C(NC(=O)C(N)c3csc4ccccc34)C2SC1 (stereo not drawn) [Ex. 9, 7-(3-Benzothienyl)glycylamido-3-methyl-3-cephem-4-carboxylic acid]
MIC ([1]; strain EC14): 32 mg/L (≈ 79.3 µM)
MIC ([1]; strain N10): 128 mg/L (≈ 317 µM)
MIC ([1]; strain TEM): 32 mg/L (≈ 79.3 µM)
Stability to β-lactamase [2]: 25
MIC ([3]; strain 2041): 64 mg/L (≈ 159 µM)
MIC ([3]; strain X66): 128 mg/L (≈ 317 µM)
MIC ([4]; strain KAE): 128 mg/L (≈ 317 µM)
MIC ([4]; strain X26): 2 mg/L (≈ 4.96 µM)
MIC ([4]; strain X68): 128 mg/L (≈ 317 µM)
MIC ([5]; strain 76): 0.5 mg/L (≈ 1.24 µM)
MIC ([5]; strain C.L.): 2 mg/L (≈ 4.96 µM)
Stability to β-lactamase [6]: 210
Stability to β-lactamase [7]: 25
MIC [8]: 0.5 mg/L (≈ 1.24 µM)
MIC ([9]; geometric mean over strains, read-out: MIC Geometric mean): 0.7 mg/L (≈ 1.73 µM)
MIC [9, 20]: 1.2 mg/L (≈ 2.97 µM)
MIC ([9]; strain 180-821, read-out: MIC): 0.5 mg/L (≈ 1.24 µM)
MIC ([9]; strain 10668, read-out: MIC): 0.5 mg/L (≈ 1.24 µM)
MIC ([9]; strain 10683, read-out: MIC): 0.5 mg/L (≈ 1.24 µM)
MIC ([9]; strain 10695, read-out: MIC): 0.5 mg/L (≈ 1.24 µM)
MIC ([9]; strain 10732, read-out: MIC): 0.5 mg/L (≈ 1.24 µM)
MIC ([9]; strain 10750, read-out: MIC): 8 mg/L (≈ 19.8 µM)
MIC ([9]; strain 10774, read-out: MIC): 1 mg/L (≈ 2.48 µM)
MIC ([9]; strain 10817, read-out: MIC): 0.5 mg/L (≈ 1.24 µM)
MIC ([9]; strain 10837, read-out: MIC): 0.5 mg/L (≈ 1.24 µM)
MIC ([9]; strain 107266, read-out: MIC): 0.5 mg/L (≈ 1.24 µM)
MIC ([9]; strain 107268, read-out: MIC): 2 mg/L (≈ 4.96 µM)
MIC ([9]; strain 108133, read-out: MIC): 0.5 mg/L (≈ 1.24 µM)
Stability to β-lactamase [10]: 3
Stability to β-lactamase [11]: 14
potency compared to known antibiotics [12]: much more potent than those with which it was compared
MIC ([13]; strain 9, readings 24 hrs. after incubation): 4 mg/L (≈ 9.91 µM)
MIC ([13]; strain 103, readings 24 hrs. after incubation): 32 mg/L (≈ 79.3 µM)
MIC ([13]; strain 104, readings 24 hrs. after incubation): 4 mg/L (≈ 9.91 µM)
MIC ([13]; strain 106, readings 24 hrs. after incubation): 4 mg/L (≈ 9.91 µM)
MIC ([13]; strain 107, readings 24 hrs. after incubation): 8 mg/L (≈ 19.8 µM)
MIC ([13]; strain 108, readings 24 hrs. after incubation): 4 mg/L (≈ 9.91 µM)
MIC ([13]; strain 110, readings 24 hrs. after incubation): 8 mg/L (≈ 19.8 µM)
MIC ([13]; strain 111, readings 24 hrs. after incubation): 64 mg/L (≈ 159 µM)
MIC ([13]; strain 1877, readings 24 hrs. after incubation): 8 mg/L (≈ 19.8 µM)
MIC [14]: 32 mg/L (≈ 79.3 µM)
MIC ([15]; strain 1438, readings 24 hrs. after incubation): 4 mg/L (≈ 9.91 µM)
MIC ([15]; strain 1900A, readings 24 hrs. after incubation): 16 mg/L (≈ 39.7 µM)
MIC ([16]; strain S224): 1 mg/L (≈ 2.48 µM)
MIC ([16]; strain S225): 1 mg/L (≈ 2.48 µM)
MIC ([16]; strain S226): 2 mg/L (≈ 4.96 µM)
MIC ([16]; strain S227): 1 mg/L (≈ 2.48 µM)
MIC ([16]; strain S228): 1 mg/L (≈ 2.48 µM)
MIC ([16]; strain S229): 2 mg/L (≈ 4.96 µM)
MIC ([16]; strain S230): 1 mg/L (≈ 2.48 µM)
MIC ([16]; strain S231): 1 mg/L (≈ 2.48 µM)
MIC ([16]; strain S234): 2 mg/L (≈ 4.96 µM)
MIC ([16]; strain S237): 1 mg/L (≈ 2.48 µM)
MIC ([16]; strain S238): 2 mg/L (≈ 4.96 µM)
MIC ([16]; strain S239): 2 mg/L (≈ 4.96 µM)
MIC ([17]; strain 76): 1 mg/L (≈ 2.48 µM)
MIC ([17]; strain 105): 1 mg/L (≈ 2.48 µM)
MIC ([17]; strain 158): 1 mg/L (≈ 2.48 µM)
MIC ([17]; strain 164): 1 mg/L (≈ 2.48 µM)
MIC ([17]; strain 169): 1 mg/L (≈ 2.48 µM)
MIC ([17]; strain 171): 1 mg/L (≈ 2.48 µM)
MIC ([17]; strain 312): 1 mg/L (≈ 2.48 µM)
MIC ([17]; strain 1683): 0.5 mg/L (≈ 1.24 µM)
MIC ([17]; strain 1930): 1 mg/L (≈ 2.48 µM)
MIC ([17]; strain 4842): 1 mg/L (≈ 2.48 µM)
MIC ([17]; strain C.L.): 2 mg/L (≈ 4.96 µM)
MIC ([17]; strain HESS): 1 mg/L (≈ 2.48 µM)
MIC ([17]; strain M366): 64 mg/L (≈ 159 µM)
MIC ([17]; strain M370): 1 mg/L (≈ 2.48 µM)
MIC ([17]; strain M371): 1 mg/L (≈ 2.48 µM)
MIC ([17]; strain R465): 64 mg/L (≈ 159 µM)
MIC ([17]; strain STEL): 64 mg/L (≈ 159 µM)
MIC [18]: 0.125 mg/L (≈ 0.31 µM)
MIC ([19]; geometric mean over strains, read-out: MIC Geometric Mean): 1.1 mg/L (≈ 2.73 µM)
MIC [19, 20]: 2.1 mg/L (≈ 5.2 µM)
MIC ([19]; strain 101, read-out: MIC): 1 mg/L (≈ 2.48 µM)
MIC ([19]; strain 102): 16 mg/L (≈ 39.7 µM)
MIC ([19]; strain 103, read-out: MIC): 0.5 mg/L (≈ 1.24 µM)
MIC ([19]; strain 105, read-out: MIC): 0.5 mg/L (≈ 1.24 µM)
MIC ([19]; strain 107, read-out: MIC): 1 mg/L (≈ 2.48 µM)
MIC ([19]; strain 108, read-out: MIC): 2 mg/L (≈ 4.96 µM)
MIC ([19]; strain 109, read-out: MIC): 1 mg/L (≈ 2.48 µM)
MIC ([19]; strain 110, read-out: MIC): 0.5 mg/L (≈ 1.24 µM)
MIC ([19]; strain 111, read-out: MIC): 0.5 mg/L (≈ 1.24 µM)
MIC ([19]; strain 112, read-out: MIC): 2 mg/L (≈ 4.96 µM)
MIC ([19]; strain 113, read-out: MIC): 0.5 mg/L (≈ 1.24 µM)
MIC ([19]; strain 114, read-out: MIC): 2 mg/L (≈ 4.96 µM)
